Reference: patent publication US6458384B2, “Pharmaceutical with predetermined activity profile” (priority 2000, dated 2002)

Experiments:
[1] = USP paddle test in phosphate buffer pH 6.8 of ethylcellulose-coated caffeine tablets; type: physicochemical
Procedure: The term “release profile” refers to the pattern of release of the respective pharmacologically active substance over time, that is, the amount released over time. This may be measured either in vivo, e.g. indirectly by measuring the blood concentration, or preferably ex vivo, e.g. by the USP paddle method that allows for determination of the dissolution rate of the substance. For example, a USP paddle apparatus operating at 37° C. and 50 rpm ist used and the preparations are tested in (e.g. 900 ml) artificial intestinal fluid, e.g. phosphate buffer pH 6.8; artificial gastric juice, e.g. 0.1 N HCl; or water. Samples are withdrawn for determination of the amount of substance released in intervals of e.g. 30 or 60 min an analysed, e.g. spectrophotometrically, for example at 272 nm for caffeine, and/or using HPLC methods.

[2] = Release According to USP (USP Paddle, 50 rpm), 0.1 N HCl then phosphate buffer pH 6.8; type: physicochemical; settings: 0.1 N HCl 0-120 min, phosphate buffer pH 6.8 >120 min, 37° C.
Procedure: The term “release profile” refers to the pattern of release of the respective pharmacologically active substance over time, that is, the amount released over time. This may be measured either in vivo, e.g. indirectly by measuring the blood concentration, or preferably ex vivo, e.g. by the USP paddle method that allows for determination of the dissolution rate of the substance. […] Samples are withdrawn for determination of the amount of substance released in intervals of e.g. 30 or 60 min an analysed, e.g. spectrophotometrically, for example at 272 nm for caffeine, and/or using HPLC methods. A preferred method is described in the examples that may be used in analogy for other pharmaceuticals according to the invention. Preferred methods for analyzing blood or plasma levels of compounds are also described in the examples—analogous methods can be used for different active substances and are known int the art or easily derivable from the art. Where not indicated otherwise, percentages or other relative indications of amounts are given on a weight by weight (w:w) basis. The dissolution rate determination using the USP paddle apparatus has already been described above. The attrition rate of tablet cores for subsequent film-coating is preferably determined under standard conditions in a friabilator. The rate of attrition, i.e. the friability, is calculated. […] The crushing strength of tablets is determined in a tablet hardness tester (N=10). [table] [table] [table]

Cn1c(=O)c2c(ncn2C)n(C)c1=O [Caffeine]
time for releasing the complete amount of caffeine after release starts ([1]; Example 5 ethylcellulose-coated tablets, phosphate buffer pH 6.8, 5 out of six tested tablets): ≤ 2 h
start of caffeine release after melatonin release ([1]; Example 5 test preparation: coated gelatine capsule with 6 caffeine tablets and 0.5 mg melatonin, stated from the properties of the tablets): approximately 420 min
Accumulated rel, Time (min) 15 ([2]; Example 1 sachet formulation, 15 min): 0.0%
Accumulated rel, Time (min) 30 ([2]; Example 1 sachet formulation, 30 min): 0.0%
Accumulated rel, Time (min) 60 ([2]; Example 1 sachet formulation, 60 min): 0.0%
Accumulated rel, Time (min) 120 ([2]; Example 1 sachet formulation, 120 min): 0.0%
Accumulated rel, Time (min) 180 ([2]; Example 1 sachet formulation, 180 min): 0.0%
Accumulated rel, Time (min) 240 ([2]; Example 1 sachet formulation, 240 min): 0.0%
Accumulated rel, Time (min) 300 ([2]; Example 1 sachet formulation, 300 min): 0.0%
Accumulated rel, Time (min) 330 ([2]; Example 1 sachet formulation, 330 min): 87.0%
Accumulated rel, Time (min) 360 ([2]; Example 1 sachet formulation, 360 min): 99.0%
Accumulated rel, Time (min) 420 ([2]; Example 1 sachet formulation, 420 min): 99.5%
Accumulated rel, Time (min) 15 ([2]; Example 2 tablet formulation, 15 min): 0.0%
Accumulated rel, Time (min) 30 ([2]; Example 2 tablet formulation, 30 min): 0.0%
Accumulated rel, Time (min) 60 ([2]; Example 2 tablet formulation, 60 min): 0.0%
Accumulated rel, Time (min) 120 ([2]; Example 2 tablet formulation, 120 min): 0.0%
Accumulated rel, Time (min) 180 ([2]; Example 2 tablet formulation, 180 min): 0.0%
Accumulated rel, Time (min) 240 ([2]; Example 2 tablet formulation, 240 min): 0.0%
Accumulated rel, Time (min) 300 ([2]; Example 2 tablet formulation, 300 min): 15.0%
Accumulated rel, Time (min) 330 ([2]; Example 2 tablet formulation, 330 min): 89.3%
Accumulated rel, Time (min) 360 ([2]; Example 2 tablet formulation, 360 min): 99.5%
Accumulated rel, Time (min) 420 ([2]; Example 2 tablet formulation, 420 min): 99.7%
Accumulated release, Time (min) 15 ([2]; Example 3 tablet formulation, 15 min): 0.0%
Accumulated release, Time (min) 30 ([2]; Example 3 tablet formulation, 30 min): 0.0%
Accumulated release, Time (min) 60 ([2]; Example 3 tablet formulation, 60 min): 0.0%
Accumulated release, Time (min) 120 ([2]; Example 3 tablet formulation, 120 min): 0.0%
Accumulated release, Time (min) 180 ([2]; Example 3 tablet formulation, 180 min): 0.0%
Accumulated release, Time (min) 240 ([2]; Example 3 tablet formulation, 240 min): 0.0%
Accumulated release, Time (min) 300 ([2]; Example 3 tablet formulation, 300 min): 5.3%
Accumulated release, Time (min) 330 ([2]; Example 3 tablet formulation, 330 min): 85.6%
Accumulated release, Time (min) 360 ([2]; Example 3 tablet formulation, 360 min): 99.0%
Accumulated release, Time (min) 420 ([2]; Example 3 tablet formulation, 420 min): 99.2%
